The target in assay [1] is adult rat brain cytosol compound which binds PREG (Rattus norvegicus, UniProt P15146). The experiment in a line: Equilibrium binding of PREG to adult rat brain cytosol. The procedure: Adult male rat brains are collected after perfusion with PBS containing 2 IU/ml of heparin. The brains are weighed and homogenized with 4 vol. of homogenization buffer in Potter glass/Teflon® homogenizers, and centrifuged at 800 g for 10 min.
The supernatant is then centrifuged at 100,000 g for 1 h at 4° C. The samples are used immediately for the trials, or are stored in liquid nitrogen until the moment of their use.
Just before the binding trial, each sample is purified with a dextran-carbon suspension, and 2 ml samples of supernatant (purified cytosol) are added to a series of tubes containing 1 to 500 nM PREG [^3H], with or without unlabeled steroid in 1,000-fold excess.
The tubes are incubated at 45° C. for 30 min. The separation of bound and free steroid was carried out on a Sephadex LH-20® (Amersham Pharmacia Biotech) mini-column.
The counting of the radioactivity in the flasks was performed in a liquid scintillation spectrometer with attenuation correction (Tri-Carb 2100 TR®, Packard).

Assay [2] deals with T1, fetal microtubules (Rattus norvegicus, UniProt P15146). The experiment in a line: Binding of PREG [3H] to purified fetal rat brain microtubules. As to the method:
(§1) The microtubules are prepared starting from calf brain or adult or fetal rat brain according to an assembly/disassembly method, as a function of the temperature, in vitro (12).
(§2) The binding of PREG [^3H] to microtubules prepared by polymerization/depolymerization cycles was determined.

The target of the next assay is adult microtubules (Rattus norvegicus, UniProt P15146). Description: Binding of PREG [3H] to purified adult rat brain microtubules. The procedure: as §1, §2
Assay [3] concerns the target T2, MAP2-tubulin copolymers (Bos taurus, UniProt A0A3Q1NAK9). The experiment in a line: Equilibrium binding of PREG [3H] to MAP2-tubulin copolymers. Also on record: species or system calf. The procedure: (§3) The calf tubulin is purified according to the protocol of Weingarten et al. (13), but the step using phosphocellulose is replaced by a cation exchange column chromatography (Fractogel, Merck) (14). The microtubules and the tubulin are prepared in L buffer, supplemented with 1 mM of GTP (buffer A).
(§4) The tau and MAP2 proteins are purified according to the protocol of Fellous et al. (12) by heat denaturation of the microtubules and gel filtration on a column, Sephacryl 300® being used instead of the Ultrogel ACA 34. The tau proteins are then Further purified according to the method of Lindwall and Cole (15).
(§5) Purified calf brain tubulin (90 μg/ml), MAP2 (45 μg/ml) or tau protein (25 μg/ml) is incubated with 100 nM of PREG [^3H], with or without a 1,000-fold excess of non-radioactive PREG.
The B/U values are reported in FIG. 5 as a function of B in nM, (-∘-) representing equilibrium binding of purified calf brain MAP2, and (-∘-) the equilibrium binding of purified calf brain MAP2 associated with purified calf brain tubulin (for the experimental details, see FIG. 1).

The test system of assay [4] is rat brain cytosol binding sites of pregnenolone. The experiment in a line: Competition trials for PREG [3H] binding in brain cytosol. More on the design: key to R.C.R. 50 (relative competition index): IC50(PREG)/IC50(competitor) ×100; PREG = 100. Particulars: PREG = 100, 50% reduction of specific binding of 100 nM PREG [3H], mean±standard error, n=3. As to the method:
(§6) In trials of competition between pregnenolone and different steroids for the binding studied, 0.2 ml of cytosol is incubated with 100 nM of PREG [^3H] and a 1-, 10-, 100-, and 1,000-fold excess of non-radioactive steroid.
To study the specificity of the binding of PREG [^3H], different steroids were used.
(§7) The relative competition index was determined as ratios of the concentrations of the competitor (in the […]) versus PREG causing a reduction of 50% of the specific binding of PREG [^3H]×100 (mean±standard error, n=3).

Assay [5] has as its target T1, fetal microtubules. Description: Competition for PREG [3H] binding to fetal microtubules (RCR). The conditions noted are these: PREG = 100. The procedure:
as §6, §1, §7, §2

The target of assay [6] is T2, MAP2-tubulin copolymers. Description: Competition for PREG [3H] binding to MAP2-tubulin copolymers (RCR). Also on record: species or system calf. The conditions noted are these: MAP2-tubulin copolymers; PREG = 100. As to the method:
as §6, §7, §5

Assay [7] relates to purified calf brain tubulin. The experiment in a line: Saturable binding of PREG [3H] to purified tubulin. Particulars: tubulin 90 μg/ml, 100 nM PREG [3H] ± 1,000-fold excess PREG. The procedure: as §3, §5
In a further assay the test system is tau protein. Description: Saturable binding of PREG [3H] to purified tau protein. The conditions noted are these: tau protein 25 μg/ml, 100 nM PREG [3H] ± 1,000-fold excess PREG. More on the design: species or system calf. The procedure:
as §4, §5

In assay [8] the target is T3, microtubules reconstituted with purified tubulin and MAP2 (Bos taurus, UniProt A0A3Q1NAK9).
T3 construct: from tissue; host or cells: calf brain
The experiment in a line: Kinetics of assembling of microtubules (turbidity at 345 nm). The format is biochemical, calf. The conditions noted are these: 500 nM steroid, 37° C., 15 min. As to the method:
This assembling is measured by monitoring the increases of turbidity with a UVICON® spectrophotometer (Kontron Instruments, Montigny-le-Bretonneux, France)
The microtubules are reconstituted in vitro with purified tubulin (1 mg/ml) and MAP2 (0.05 mg/ml) in buffer A.
The increase of absorbance is measured at 345 nm, at 37° C. and recorded every 30 sec. for 15 min.
The assembling of microtubules is measured either in the absence of steroids (-⋄-); or in the presence of 500 nM of steroid: PREG (- -), progesterone (-X-), estradiol (-V-); or in the presence, at the same time, of PREG and progesterone (-∘-) or of PREG and estradiol (-Δ-) each at a concentration of 500 nM.

Assay [9] has as its system calf brain tubulin assembled with calf brain MAP2. Description: Electron microscopy of microtubules polymerized in the presence of PREG. The format is biochemical. The conditions noted are these: 500 nM of PREG. As to the method: After the polymerization of the microtubules induced by MAP2 in the absence or presence of the substance to be tested, an aliquot portion of the experimental sample is deposited on a hydrophilic grid (300 mesh) covered with carbon. The grids are treated with an aqueous solution of 1% uranyl acetate. Observations are performed with a Phllips CM12 electron microscope.
Analysis was performed of microtubules polymerized in the presence of PREG to verify their appearance.

This note sets out measurements from patent publication US20030125311A1, “Compounds capable of binding with the cytoskeleton” (priority 2002, published 2003).

Molecules are shown by their SMILES.

T2 sequence (A0A3Q1NAK9 1-1867): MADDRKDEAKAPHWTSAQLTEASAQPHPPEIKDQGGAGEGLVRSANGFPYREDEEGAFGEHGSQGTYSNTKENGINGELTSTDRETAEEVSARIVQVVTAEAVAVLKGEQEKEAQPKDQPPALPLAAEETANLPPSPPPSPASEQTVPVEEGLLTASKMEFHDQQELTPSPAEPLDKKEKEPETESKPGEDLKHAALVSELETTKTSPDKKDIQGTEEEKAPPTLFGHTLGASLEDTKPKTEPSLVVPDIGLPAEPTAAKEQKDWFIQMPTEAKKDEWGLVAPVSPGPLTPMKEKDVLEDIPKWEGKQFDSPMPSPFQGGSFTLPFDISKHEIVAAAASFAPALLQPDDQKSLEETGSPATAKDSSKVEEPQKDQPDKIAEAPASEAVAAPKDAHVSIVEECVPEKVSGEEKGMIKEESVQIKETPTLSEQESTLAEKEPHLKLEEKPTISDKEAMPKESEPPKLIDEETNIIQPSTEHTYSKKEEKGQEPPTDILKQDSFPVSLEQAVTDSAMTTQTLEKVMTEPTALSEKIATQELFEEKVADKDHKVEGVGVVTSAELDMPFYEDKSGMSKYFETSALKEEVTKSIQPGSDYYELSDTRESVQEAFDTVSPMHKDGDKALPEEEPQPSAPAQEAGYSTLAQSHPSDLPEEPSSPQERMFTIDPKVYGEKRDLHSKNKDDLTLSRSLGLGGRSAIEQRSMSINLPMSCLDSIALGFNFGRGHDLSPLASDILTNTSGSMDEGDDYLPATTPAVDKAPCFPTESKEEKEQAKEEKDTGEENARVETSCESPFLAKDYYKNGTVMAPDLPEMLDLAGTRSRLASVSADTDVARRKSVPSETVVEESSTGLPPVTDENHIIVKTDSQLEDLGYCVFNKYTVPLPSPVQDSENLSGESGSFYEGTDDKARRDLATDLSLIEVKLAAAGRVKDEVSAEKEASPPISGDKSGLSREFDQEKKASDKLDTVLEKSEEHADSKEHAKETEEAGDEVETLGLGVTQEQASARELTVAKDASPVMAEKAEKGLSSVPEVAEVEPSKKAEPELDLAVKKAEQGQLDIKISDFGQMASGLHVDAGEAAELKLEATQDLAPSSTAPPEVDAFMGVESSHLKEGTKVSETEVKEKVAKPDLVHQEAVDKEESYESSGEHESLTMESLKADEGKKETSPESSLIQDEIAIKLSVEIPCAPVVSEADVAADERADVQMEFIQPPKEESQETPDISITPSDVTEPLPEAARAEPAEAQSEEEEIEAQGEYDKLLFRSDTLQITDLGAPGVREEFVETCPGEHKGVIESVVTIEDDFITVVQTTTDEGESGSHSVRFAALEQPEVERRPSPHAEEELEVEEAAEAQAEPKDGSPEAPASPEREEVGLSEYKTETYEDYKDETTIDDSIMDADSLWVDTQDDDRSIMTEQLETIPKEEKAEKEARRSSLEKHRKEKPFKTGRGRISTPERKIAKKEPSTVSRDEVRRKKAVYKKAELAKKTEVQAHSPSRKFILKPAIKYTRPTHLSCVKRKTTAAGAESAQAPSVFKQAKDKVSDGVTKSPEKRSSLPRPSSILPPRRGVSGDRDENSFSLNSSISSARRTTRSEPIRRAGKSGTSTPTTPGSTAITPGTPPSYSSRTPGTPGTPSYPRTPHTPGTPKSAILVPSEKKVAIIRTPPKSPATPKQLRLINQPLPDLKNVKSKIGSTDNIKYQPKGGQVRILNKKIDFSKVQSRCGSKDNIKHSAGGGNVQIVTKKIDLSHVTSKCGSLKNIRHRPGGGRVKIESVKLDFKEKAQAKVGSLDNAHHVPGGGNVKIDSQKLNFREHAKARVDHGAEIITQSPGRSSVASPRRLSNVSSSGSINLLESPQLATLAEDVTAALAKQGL
T1 sequence (P15146 whole entry): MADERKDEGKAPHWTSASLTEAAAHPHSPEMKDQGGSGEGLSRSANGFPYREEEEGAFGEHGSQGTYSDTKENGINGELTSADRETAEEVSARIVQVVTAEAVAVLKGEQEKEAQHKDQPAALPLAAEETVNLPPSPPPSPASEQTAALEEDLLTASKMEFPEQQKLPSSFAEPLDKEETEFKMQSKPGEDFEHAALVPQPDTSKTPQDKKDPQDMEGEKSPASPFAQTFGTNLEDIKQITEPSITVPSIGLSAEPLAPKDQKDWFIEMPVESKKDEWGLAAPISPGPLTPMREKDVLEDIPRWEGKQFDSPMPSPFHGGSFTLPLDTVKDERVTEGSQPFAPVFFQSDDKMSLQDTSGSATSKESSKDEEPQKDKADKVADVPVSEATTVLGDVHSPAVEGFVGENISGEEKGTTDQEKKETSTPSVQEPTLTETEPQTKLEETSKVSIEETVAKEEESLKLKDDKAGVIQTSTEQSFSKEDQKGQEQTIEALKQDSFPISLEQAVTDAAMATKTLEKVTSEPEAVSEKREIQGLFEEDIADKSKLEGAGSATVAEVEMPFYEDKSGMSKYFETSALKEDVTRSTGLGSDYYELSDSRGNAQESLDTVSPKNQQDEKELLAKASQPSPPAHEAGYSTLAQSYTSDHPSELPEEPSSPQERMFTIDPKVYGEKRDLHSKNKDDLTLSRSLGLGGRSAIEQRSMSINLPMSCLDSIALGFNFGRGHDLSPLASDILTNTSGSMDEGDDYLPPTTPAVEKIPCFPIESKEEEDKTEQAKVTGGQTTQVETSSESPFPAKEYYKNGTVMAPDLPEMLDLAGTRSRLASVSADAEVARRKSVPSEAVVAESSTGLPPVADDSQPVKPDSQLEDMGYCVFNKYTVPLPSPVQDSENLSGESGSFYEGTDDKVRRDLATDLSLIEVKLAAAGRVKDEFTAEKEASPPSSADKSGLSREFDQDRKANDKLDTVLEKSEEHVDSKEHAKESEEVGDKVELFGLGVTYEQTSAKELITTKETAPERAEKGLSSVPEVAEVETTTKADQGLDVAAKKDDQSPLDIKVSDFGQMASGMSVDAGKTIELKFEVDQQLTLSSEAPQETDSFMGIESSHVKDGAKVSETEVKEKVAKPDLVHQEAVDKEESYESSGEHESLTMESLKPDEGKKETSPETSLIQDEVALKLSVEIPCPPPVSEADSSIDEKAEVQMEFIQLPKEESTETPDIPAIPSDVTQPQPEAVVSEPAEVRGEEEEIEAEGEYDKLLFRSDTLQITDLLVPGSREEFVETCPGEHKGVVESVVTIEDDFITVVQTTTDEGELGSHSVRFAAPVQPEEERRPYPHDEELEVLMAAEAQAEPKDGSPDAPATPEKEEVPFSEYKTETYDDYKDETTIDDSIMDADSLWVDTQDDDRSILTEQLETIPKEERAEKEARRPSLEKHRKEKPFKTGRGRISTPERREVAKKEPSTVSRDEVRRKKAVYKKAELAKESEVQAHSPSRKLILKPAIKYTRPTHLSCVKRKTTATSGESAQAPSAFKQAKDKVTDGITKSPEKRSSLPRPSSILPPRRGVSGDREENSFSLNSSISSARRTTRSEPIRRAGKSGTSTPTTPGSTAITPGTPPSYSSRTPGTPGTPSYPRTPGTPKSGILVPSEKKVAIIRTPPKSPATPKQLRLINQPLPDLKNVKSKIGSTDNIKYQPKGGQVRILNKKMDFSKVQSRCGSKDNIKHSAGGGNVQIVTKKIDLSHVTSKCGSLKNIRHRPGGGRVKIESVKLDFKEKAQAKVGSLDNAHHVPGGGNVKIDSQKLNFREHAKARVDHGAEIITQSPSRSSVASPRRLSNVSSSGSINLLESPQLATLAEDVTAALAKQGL
T3 sequence (A0A3Q1NAK9 1-1867): as the sequence (A0A3Q1NAK9 1-1867) above
adult rat brain cytosol compound which binds PREG, sequence (P15146 whole entry, the tested form may be a part): as the sequence (P15146 whole entry) above
adult microtubules, sequence (Q3KRE8 whole entry): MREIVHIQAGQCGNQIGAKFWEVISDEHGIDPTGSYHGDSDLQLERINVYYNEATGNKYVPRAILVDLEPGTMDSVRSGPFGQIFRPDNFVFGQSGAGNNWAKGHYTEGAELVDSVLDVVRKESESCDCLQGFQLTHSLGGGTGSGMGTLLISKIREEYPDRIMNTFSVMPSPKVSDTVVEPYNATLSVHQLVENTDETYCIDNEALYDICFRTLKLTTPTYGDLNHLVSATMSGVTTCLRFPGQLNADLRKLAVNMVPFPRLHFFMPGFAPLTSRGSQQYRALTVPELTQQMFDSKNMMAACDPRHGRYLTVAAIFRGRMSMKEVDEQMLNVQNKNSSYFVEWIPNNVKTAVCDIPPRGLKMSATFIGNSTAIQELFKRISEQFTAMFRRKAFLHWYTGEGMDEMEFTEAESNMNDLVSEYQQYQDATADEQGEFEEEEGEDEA
adult microtubules, sequence (P68370 whole entry, further chain): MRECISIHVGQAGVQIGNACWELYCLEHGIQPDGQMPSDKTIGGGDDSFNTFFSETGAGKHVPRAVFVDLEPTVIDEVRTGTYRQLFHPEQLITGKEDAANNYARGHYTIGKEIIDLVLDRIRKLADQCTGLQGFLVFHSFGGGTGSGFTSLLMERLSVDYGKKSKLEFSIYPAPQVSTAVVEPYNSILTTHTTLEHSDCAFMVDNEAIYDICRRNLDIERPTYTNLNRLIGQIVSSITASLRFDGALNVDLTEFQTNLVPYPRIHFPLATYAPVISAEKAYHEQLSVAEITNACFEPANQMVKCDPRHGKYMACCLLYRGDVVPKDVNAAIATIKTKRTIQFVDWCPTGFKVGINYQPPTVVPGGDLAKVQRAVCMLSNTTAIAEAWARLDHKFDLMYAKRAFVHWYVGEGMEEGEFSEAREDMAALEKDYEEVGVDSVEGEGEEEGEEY
adult microtubules, sequence (P15146 whole entry): as the sequence (P15146 whole entry) above

Regarding `CC(=O)C1CCC2C3CC=C4CC(O)CCC4(C)C3CCC12C` (stereo not shown) [Pregnenolone], the Bmax in assay [1] is reported as 0.75 pmol/mg of protein; on fetal microtubules [2], 3.7 pmol/mg of protein; at adult microtubules, 3.4 pmol/mg of protein; at MAP2-tubulin copolymers [3] it was 135 pmol/mg of MAP2. Besides, the results for the dissociation constant (Kd) on fetal microtubules [2] and on MAP2-tubulin copolymers [3] were 42.9 nM and 44 nM, respectively. In addition, the “R.C.R. 50 (relative competition index)” value in assay [4] was found to be 100. Also, the RCR at fetal microtubules [5] and at MAP2-tubulin copolymers [6] was 100 throughout. For the same molecule, the “saturable binding to tubulin” value in [7] is “neither tubulin, nor tau protein, nor rabbit IgG binds PREG [^3H] in a saturable manner”. In addition, the “saturable binding to tau protein” value in the assay on tau protein was “neither tubulin, nor tau protein, nor rabbit IgG binds PREG [^3H] in a saturable manner”. Further, the “effect on assembling of microtubules (absorbance at 345 nm)” value in assay [8] was “induces a strong increase of both the speed and the extent of the assembling of the tubulin”. Also, the “structure of the microtubules” value in assay [9] is “remains completely normal”.

As a reminder, the Kd is the concentration at which binding is half-saturated.
